Experimental data: publication PMC7993833, “EDP-938, a novel nucleoprotein inhibitor of respiratory syncytial virus, demonstrates potent antiviral activities in vitro and in a non-human primate model” (PLoS Pathogens, 2021)

Columns and labels:
RSV-A M37 [1] = test: CPE assay, RSV-A M37 in HEp-2 cells; assay type: cell-based; details: human respiratory syncytial virus
Protocol: (§1) HEp-2, Vero, and BHK were seeded at 8,000 cells per well (cpw) in growth medium (Dulbecco’s Modified Eagle Medium (DMEM) with 1% GlutaMAX, 1% Penicillin/Streptomycin (P/S), 1% Non-Essential Amino Acids (NEAA), 10% Fetal Bovine Serum (FBS)) or (Minimum Essential Medium (MEM) with 10% FBS, 1% NEAA, 1% P/S) or (Eagle’s Minimum Essential Medium with L-Glutamine, with 10% FBS, 1% P/S) respectively. A549 seeded at 3,000 cpw in F-12K Kaighn’s Modification nutrient mixture with 10% FBS, 1% NEAA, 1% P/S. Cells seeded at time of infection in 96-well plates, final well volume 100μL. Compounds suspended in DMSO, serially diluted and added to wells at 0.5% final DMSO concentration. Viral stocks stabilized with 25% sucrose, previously titered using plaque assay, were added at desired MOI. Sucrose added to cells-only control wells to match percent added with virus. Unless otherwise noted, RSV-A strains were tested at 0.1 MOI and incubated for 5 days in a 37°C, 5% CO2 humidified incubator, and RSV-B at 0.5 MOI for 6 days. Cytopathic effect (CPE) determined using ATPlite (Perkin Elmer) measured with Envision luminometer. For RT-qPCR, RNA was extracted from whole well using Ambion RNAqueous-96 Automated Kit, and RT-qPCR run using Applied Biosystems TaqMan RNA-to-CT 1-Step Kit. […] All EC50s were calculated using the XLFit four-parameter logistic model 200 in Microsoft Excel.

HBEC = test: Cytotoxicity (ATPlite) in primary HBECs; assay type: cell-based, human
Protocol: (§2) HEp-2, A549, and CHO cells were seeded at 3,000 cpw in their respective growth medium. CHO growth medium used was RPMI medium 1640 with 10% FBS, 1% P/S, 1% GlutaMAX. HEK-293 cells seeded at 10,000 cpw in DMEM growth medium. Undifferentiated HBECs were seeded in collagen-coated 96-well plates at 7,500 cpw in appropriate growth medium. Compound added and incubated for 3 days (4 days for HBECs) as described above. Plates read with ATPlite and CC50 calculated as EC50s as described above. SI = CC50/EC50 within a cell line.

RSV-A Long [2] = test: RT-qPCR assay, RSV-A Long in primary HBECs; assay type: cell-based; details: human respiratory syncytial virus, primary HBEC
HEp-2 cells = test: Cytotoxicity (ATPlite) in HEp-2 cells; assay type: cell-based, human; details: at up to 50 μM, 3 days
Protocol: as §2

RSV-A Long [3] = test: Time-of-addition study, CPE endpoint; assay type: cell-based, respiratory syncytial virus; details: for EC50: human respiratory syncytial virus, read-out: EC50 for cytoprotection
Protocol: In order to help determine which step of the viral life cycle EDP-938 blocks multiple in vitro time-of-addition studies were performed. In the first study, EDP-938 was administered to cells infected with RSV-A Long at a MOI of 0.1 at 2 hours pre-infection (-2) or 2, 6, or 24 hours post-infection (hpi), and viral CPE evaluated 5 days later. […] A second time-of-addition study explored the ability of EDP-938 to protect not just a population experiencing a spreading infection, but individual cells already infected with RSV. Using a MOI of 3, which infects approximately 95% of all cells, virus was cold-adsorbed to the cells for 1 hour to synchronize infection before transfer to 37°C to induce fusion (marking the 0 hpi time point). Compound was added at times indicated and a 24 hpi RT-qPCR endpoint was employed to constrain viral replication cycle to a single complete cycle.
As above, but 8,000 HEp-2 cpw seeded 1-day pre-infection. 2h pre-infection compound or media added. Plates incubated 2h. Viral infection at 0.1 MOI, incubated 1h. Viral inoculum removed, cells washed, and media replaced with compound for -2h sample. Compound added at 2h, 6h, and 24h post-infection to appropriate plates. 5dpi cell viability calculated as described above.

A549 cells = test: Cytotoxicity (ATPlite) in A549 cells; assay type: cell-based, human; details: at up to 50 μM, 3 days
Protocol: as §2

[4] = Cytotoxicity (ATPlite) in CHO cells; assay type: cell-based; details: Chinese hamster, read-out: half-maximal cytotoxic concentration (CC50)
Protocol: as §2

RSV-B clinical isolates = test: RSV Virospot reduction assay (ViroClinics), RSV-B isolates from the Netherlands; assay type: cell-based; details: human respiratory syncytial virus, 10 RSV-B strains from the Netherlands
Protocol: To further expand testing against clinical isolates, the compound was assayed against a panel of 10 RSV-A and 10 RSV-B strains mainly isolated from children of age 2–200 weeks in the Netherlands.
RSV clinical isolates were obtained from Baylor University and Medical College of Wisconsin. MOI of 0.1 used for all clinical isolates except RSV-A 629-9-2 (0.01) and RSV-B 629-24/2007 (0.0044) due to low titer. Virospot reduction assay was run by ViroClinics (Rotterdam, the Netherlands) against 20 additional RSV clinical isolates.

RSV-A Long [5] = test: RT-qPCR viral load assay, RSV-A Long in HEp-2 cells; assay type: cell-based; details: human respiratory syncytial virus, HEp-2, RT-qPCR
RSV-A M37 [6] = test: RT-qPCR assay, RSV-A M37 in primary HBECs; assay type: cell-based; details: human respiratory syncytial virus, primary HBEC
RSV-B VR-955 = test: CPE assay, RSV-B VR-955 in A549 cells; assay type: cell-based; details: human respiratory syncytial virus
Protocol: as §1

SMILES: O=C1Nc2ccccc2C(c2ccccc2)=N[C@@H]1Nc1nnc(-c2ncc(C(F)(F)F)cc2N2CCOCC2)o1 [EDP-938]
- EC50 (RSV-A M37 [1]): 28 ± 4 nM
- EC90 (RSV-A M37 [1]): 34 ± 10 nM
- selectivity index (HBEC; HBEC cells, SI = CC50/EC50 within a cell line): > 2,380
- cytotoxicity (HBEC; HBEC, at up to 50 μM, 4 days): no significant cytotoxicity
- EC50 (RSV-A Long [2]; 144 h, RSV-A Long MOI 0.1, 6 days): 21 ± 17 nM
- EC90 (RSV-A Long [2]; RSV-A Long): 29 ± 23 nM
- cytotoxicity (HEp-2 cells): no significant cytotoxicity
- EC50 (RSV-A Long [3]; 120 h, compound addition at -2 h, HEp-2, RSV-A Long MOI 0.1, CPE 5 days): 49 nM
- EC50 (RSV-A Long [3]; compound addition at 2 h post-infection): 55 nM
- EC50 (RSV-A Long [3]; compound addition at 6 h post-infection): 76 nM
- EC50 (RSV-A Long [3]; compound addition at 24 h post-infection): 66 nM
- cytoprotective activity maintained (RSV-A Long [3]; when given up to 24 hpi, RSV-A Long MOI 0.1): about 80%
- cytotoxicity (A549 cells): no significant cytotoxicity
- CC50 at 3 days [4]: ~27000 nM
- EC50 (RSV-B clinical isolates): 51 nM
- EC50 (RSV-A Long [5]; 120 h, RSV-A Long MOI 0.1, 5 days, read-out: EC50): 89 ± 16 nM
- EC90 (RSV-A Long [5]; RSV-A Long): 91 ± 62 nM
- EC50 (RSV-A M37 [6]; 144 h, RSV-A M37 MOI 0.1, 6 days): 23 ± 14 nM
- EC90 (RSV-A M37 [6]; RSV-A M37): 36 ± 17 nM
- EC50 (RSV-B VR-955; 144 h, RSV-B VR-955 MOI 0.5, 6 days): 72 ± 9 nM
- EC90 (RSV-B VR-955; RSV-B VR-955): 223 ± 90 nM
